In publication PMC13313556, “Development and characterization of triazole-based WDR5 inhibitors for the treatment of glioblastoma” (JCI Insight, 2026):
Where two headings read alike, the source gives them in different places.

Experiments:
5 different CSC models = experiment: 7-day CTG viability / cross-titration, panel of 5 CSC models; assay type: cell-based, human; conditions: Homo sapiens; 7-day assay, 5 CSC models
Method: For GI50 determination, compounds were stamped in technical triplicate, while for synergy cross-titrations dose-response matrices were prepared in technical duplicate. Different CSC lines, grown in suspension as spheroids, were split with Accutase and seeded directly on top of the prestamped compounds (50 μL of NBMc and 700 cells/well). The outer 4 rows (A,B and O,P row IDs) and 4 columns (1,2 and 23,24 column IDs) were filled with 80 μL of PBS to minimize evaporation. Cells were incubated with compounds for 7 days at 37°C/5% CO2 prior to the addition of 25 μL/well Cell-Titer Glo (Promega) and luminescence quantification on a Revvity EnVision plate reader. […] For the cross-titrations of 2 compounds, synergy scores were calculated using the MuSyC webserver ([79]).

DI318 flank PDX tumors [1] = experiment: DI318 flank xenograft, tumor volume; assay type: in vivo, NSG mice; conditions: 30 mg/kg once a day i.p. over 7 days
Method: (A) NOD-scid (NSG) mice were inoculated subcutaneously in the right flank with 2 × 10⁶ DI318 CSCs suspended in 100 μL of PBS:Matrigel (1:1). Over the next 6-7 days tumors developed to the point where a small mass was visual. A digital caliper measurement (length and width) were taken to get a baseline tumor size. Mice
Compounds were formulated in 20% HP β-cyclodextrin (BCD) and administered once daily via IP injection at 30 mg/kg for 7 consecutive days.
Endpoint ellipsoid tumor volume was calculated and compared using a t-test.

L0 CSCs = experiment: Extreme limiting dilution assay (ELDA) in L0; assay type: cell-based, human; conditions: 14 days
Method: (§1) L0 and DI318 CSCs were split with Accutase as single cells into NBMc. In total, 200 μL of CSCs were seeded into each well of a 96-well TC treated plate (n = 10 well per density) at 50, 25, 13, 6, 3, and 1.5 cells/well. […] The stem cell frequency was quantified and treatments were compared with DMSO as described by Hu and Smyth ([98]).

DI318 flank PDX tumors [2] = experiment: ELDA of cells dissociated from DI318 flank tumors; assay type: in vivo, NSG mice; conditions: 30 mg/kg once a day i.p. over 7 days
Method: as §1
(1 picture or pasted object on this page, not shown here)

DI318 CSCs = experiment: Extreme limiting dilution assay (ELDA) in DI318; assay type: cell-based, human; conditions: 14 days
Method: as §1

WDR5-target genes = experiment: RT-qPCR of WDR5-target genes in frozen DI318 flank tumor samples; assay type: in vivo, NSG mice; conditions: 30 mg/kg once a day i.p. over 7 days
[3] = tested on: RPS24, PYGL, CKMT1, SALL2, NID2, PYGB, RPL14 transcripts; experiment: RT-qPCR of WDR5-target genes in patient-derived CSCs (L0, L1, L2, DI318, 3832); assay type: cell-based, human; conditions: 72 hours
Method: Cells were harvested by centrifugation (5 minutes, 500g) into 2 mL Eppendorf Tubes and total RNA was purified on spin columns using the RNeasy Plus Kit (Qiagen, includes gDNA removal columns). In total, 2.5 μg of total RNA was treated with ezDNAse (Thermo Fisher) and then reverse transcribed with the SuperScript IV VILO RT Master Mix (Invitrogen). cDNA was diluted 1:100 in nuclease-free water and then transcripts were quantified using the PowerUp SYBR Green Master Mix (Thermo Fisher) on a QuantStudio 3 qPCR machine according to the manufacturer’s recommendations. Primer sets are provided in the Supporting Information. Raw Cq values were normalized per sample to the housekeeper ACTB and then the fold-change relative to DMSO treated cells was calculated as FC = 2^–ΔΔCq.

[4] = tested on: intracranial L0 PDX tumors; experiment: Long-term intracranial L0 xenograft; assay type: in vivo; conditions: 30 mg/kg once a day i.p.
Method: Briefly, L0 cells were intracranial injected into 6–12 week old NSG mice. Once fully anesthetized, mice were secured into a stereotaxic apparatus and 20,000 L0 Cells were injected into the left hemisphere 0.5 mm rostral and 1.8 mm lateral to the b4regma with 3.5 mm depth from the scalp. […] Animals were monitored over time for the presentation of neurological and behavioral symptoms at which time the animals were humanely euthanized. Survival analysis was completed using PRISM 9.1.2 and comparison were made using Log-Rank (Mantel-Cox) test.

P-glycoprotein (MDR1) = biological target: T1, P-glycoprotein (MDR1) (Homo sapiens, UniProt P08183); experiment: MDR1-MDCK permeability and efflux; assay type: in vitro ADME; conditions: for Papp A→B at 120 min, 5 μM / Papp B→A at 120 min, 5 μM / recovery at 120 min, 5 μM: dog, MDCK-MDR1, pH 7.4, 5 μM
T1 construct: host or cells: MDR1-MDCK cell monolayers
T1 sequence (P08183 whole entry): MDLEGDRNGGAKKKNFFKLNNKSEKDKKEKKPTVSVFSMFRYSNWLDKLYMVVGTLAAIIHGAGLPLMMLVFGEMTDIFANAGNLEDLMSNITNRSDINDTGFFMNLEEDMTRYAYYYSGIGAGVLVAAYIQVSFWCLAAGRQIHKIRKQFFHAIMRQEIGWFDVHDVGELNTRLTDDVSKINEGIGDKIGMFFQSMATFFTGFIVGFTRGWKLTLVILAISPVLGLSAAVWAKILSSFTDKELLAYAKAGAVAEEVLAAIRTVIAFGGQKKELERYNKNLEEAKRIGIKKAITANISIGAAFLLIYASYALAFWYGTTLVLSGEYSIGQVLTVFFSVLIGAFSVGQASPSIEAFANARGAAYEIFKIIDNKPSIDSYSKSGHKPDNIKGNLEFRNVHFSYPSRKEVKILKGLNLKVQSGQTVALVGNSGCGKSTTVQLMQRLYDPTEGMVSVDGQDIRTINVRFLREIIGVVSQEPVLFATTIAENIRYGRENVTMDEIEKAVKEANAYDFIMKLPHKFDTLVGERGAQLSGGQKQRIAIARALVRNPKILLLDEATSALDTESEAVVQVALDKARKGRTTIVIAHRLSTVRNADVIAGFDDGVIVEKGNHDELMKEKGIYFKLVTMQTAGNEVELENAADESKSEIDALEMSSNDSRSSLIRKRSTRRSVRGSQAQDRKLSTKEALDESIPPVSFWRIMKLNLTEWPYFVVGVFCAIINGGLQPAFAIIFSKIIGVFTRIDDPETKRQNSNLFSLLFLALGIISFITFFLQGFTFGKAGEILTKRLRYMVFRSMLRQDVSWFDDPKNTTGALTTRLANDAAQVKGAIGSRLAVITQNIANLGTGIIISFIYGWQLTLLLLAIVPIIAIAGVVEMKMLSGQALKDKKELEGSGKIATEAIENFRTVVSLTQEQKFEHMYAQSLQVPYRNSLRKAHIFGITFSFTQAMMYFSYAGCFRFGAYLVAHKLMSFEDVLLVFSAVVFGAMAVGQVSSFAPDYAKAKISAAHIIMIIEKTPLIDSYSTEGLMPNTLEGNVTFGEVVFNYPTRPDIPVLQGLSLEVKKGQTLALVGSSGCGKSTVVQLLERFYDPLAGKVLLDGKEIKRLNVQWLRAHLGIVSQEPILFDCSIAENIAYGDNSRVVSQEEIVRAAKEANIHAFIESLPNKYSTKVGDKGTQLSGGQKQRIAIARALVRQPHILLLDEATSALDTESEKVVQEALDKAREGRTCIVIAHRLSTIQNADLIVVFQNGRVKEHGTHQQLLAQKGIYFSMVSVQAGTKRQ
Method: Test Direction Recovery Papp (10-6 cm/s) Efflux Brain
Article (%) R1 R2 AVG Ratio Penetration
Supplemental Figure 4. Blood-brain barrier (BBB) penetration potential using MDR1-MDCK cell monolayers. All P-glycoprotein (MDR1) permeability and efflux studies were conducted at Absorption Systems (parent company Pharmaron). In brief, MDR1-MDCK monolayers were grown to confluence on collagen-coated, microporous membranes in 12-well assay plates. The permeability assay buffer was Hanks’ balanced salt solution containing 10 mM HEPES and 15 mM glucose at a pH of 7.4. The buffer in the receiver chamber also contained 1% bovine serum albumin. The dosing solution concentration was 5 μM of test article in the assay buffer. Cell monolayers were dosed on the apical side (A-to-B) or basolateral side (B-to-A) and incubated at 37°C with 5% CO2 in a humidified incubator. Samples were taken from the donor and receiver chambers after 120 minutes. Each determination was performed in duplicate. The flux of lucifer yellow was also measured post-experimentally for each monolayer to ensure no damage was inflicted to the cell monolayers during the flux period. All samples were assayed by LC-MS/MS using electrospray ionization. Efflux ratio (ER) is defined as Papp (B-to-A) / Papp […]

WDR5 = WDR5 (Homo sapiens, UniProt P61964); set-up: human WDR5 residues Ser22-Cys334 were codon optimized for E. coli; made in house; host or cells: E. coli T7 Express lysY/Iq (New England Biolabs), pET27 plasmid; conditions: read-out: direct WDR5 Ki; cited from earlier work
MV4:11 = conditions: read-out: MV4:11 GI50; cited from earlier work

Row | SMILES | GI50 (5 different CSC models) [nM] | Brain Penetration Classification (P-glycoprotein (MDR1)) | Papp A→B at 120 min, 5 μM (P-glycoprotein (MDR1); read-out: Papp A-to-B, AVG) [×10⁻⁶ cm/s] | Papp A→B at 120 min, 5 μM (P-glycoprotein (MDR1); read-out: Papp A-to-B, R1) [×10⁻⁶ cm/s] | Papp A→B at 120 min, 5 μM (P-glycoprotein (MDR1); read-out: Papp A-to-B, R2) [×10⁻⁶ cm/s] | Papp B→A at 120 min, 5 μM (P-glycoprotein (MDR1); read-out: Papp B-to-A, AVG) [×10⁻⁶ cm/s] | Papp B→A at 120 min, 5 μM (P-glycoprotein (MDR1); read-out: Papp B-to-A, R1) [×10⁻⁶ cm/s] | Papp B→A at 120 min, 5 μM (P-glycoprotein (MDR1); read-out: Papp B-to-A, R2) [×10⁻⁶ cm/s] | recovery at 120 min, 5 μM (P-glycoprotein (MDR1); read-out: Recovery, A-to-B) [%] | recovery at 120 min, 5 μM (P-glycoprotein (MDR1); read-out: Recovery, B-to-A) [%] | other results
1 | COc1cc(Cn2nnc3c2CCc2c(-c4cn(C)nc4C(F)(F)F)cc(Cn4ccnc4C)cc2-3)cc(OC)c1 [C3TD078] | 1000 to 5000 | – | – | – | – | – | – | – | – | – | effect on tumor growth (DI318 flank PDX tumors [1]): did not reduce tumor growth; L0 ELDA stem cell frequency (1 in N) (L0 CSCs; 20 nM): 1.3; L0 ELDA stem cell frequency (1 in N) (L0 CSCs; 200 nM): 2.2; L0 ELDA stem cell frequency (1 in N) (L0 CSCs; 2000 nM): 2.1; effect on stem cell frequency of treated tumors (DI318 flank PDX tumors [2]): did not reduce tumor growth or affect stem cell frequency; DI318 ELDA stem cell frequency (1 in N) (DI318 CSCs; 20 nM): 1.6; DI318 ELDA stem cell frequency (1 in N) (DI318 CSCs; 200 nM): 2.1; DI318 ELDA stem cell frequency (1 in N) (DI318 CSCs; 2000 nM): 2.2; downregulation of WDR5-target genes in treated tumors (WDR5-target genes): did not downregulate WDR5-target genes in treated tumors; IC50 ([3]; Homo sapiens, L0 and DI318, 5 genes, read-out: average IC50 of transcriptional downregulation (qPCR)): 80 nM; PYGB expression log2FC ([3]; L0, L2, DI318, 3832, 200 nM): < 1.0; PYGL and CKMT1 downregulation ([3]; all 5 CSC models, 200 nM): ~ 4 fold; RPL14 expression ([3]; all 5 CSC models, 200 nM): unaffected; RPS24 downregulation ([3]; all 5 CSC models, 200 nM): ~ 2 fold
2 | COc1cc(Cn2nnc3c2CCc2c-3cc(Cn3ccnc3C)cc2C2CC2)ccc1F [C3TD343] | – | Low | 0.113 | 0.131 | 0.0949 | 43.3 | 40.2 | 46.3 | 71.2 | 76.8 | effect on survival [4]: no effect on survival; tolerability ([4]; up to 71 days): well tolerated; survival in L0 Intracranial Xenograft (Kaplan-Meier) ([4]; vehicle 72 days): 71 days; efflux by P-glycoprotein (P-glycoprotein (MDR1); MDR1-MDCK permeability studies): strongly effluxed
3 | COc1cc(CN2CCc3c(cc(Cn4ccn(C)c4=N)cc3-c3ccc(F)cc3C)C2=O)cc(OC)c1 [C16, reference compound] | 1000 to 5000 | Low | 0.715 | 0.556 | 0.875 | 1.7 | 1.49 | 1.91 | 85.6 | 87.3 | Ki (WDR5): < 0.02 nM; GI50 (MV4:11): 38 nM
